The target of this assay is PAD4 (Homo sapiens, UniProt Q9UM07). Description: PAD4 Inhibition Assay (citrulline formation from BAEE). It counts as biochemical. The conditions noted are these: PAD4 75 nM, 60-minute preincubation at 37° C., substrate BAEE, 90 minutes. The protocol: PAD4 was diluted to 75 nM in Assay Buffer (50 mM Tris-HCl, 2 mM CaCl2, 2 mM DTT, 1 mM PMSF in H2O) and added to wells with various concentrations of compound or DMSO vehicle in Eppendorf tubes (final volume was 100 μL). Following a 60-minute preincubation at 37° C., the reaction was initiated by the addition of 10 μL substrate (22 mM BAEE in H2O) at 37° C. The reaction was stopped after 90 minutes by the addition of 25 μL HClO4 (5 M), 125 μL Reagent A (10 g/L diacetyl monoxime and 15 g/L NaCl in H2O) and 250 μL Reagent B (10 mg/mL antipyrine and 1.5 mg/mL FeCl3 diluted in detection buffer containing 25% H2SO4, 25% H3PO4 and 50% H2O) in sequence. This assay was quenched in an ice-bath for 5 minutes after boiling for 30 minutes. The citrulline formation was measured in […] (λ=465 nm) on microplate reader and the IC50 was calculated by GraphPad Prism 5.
Chain of PAD4 (Q9UM07 whole entry): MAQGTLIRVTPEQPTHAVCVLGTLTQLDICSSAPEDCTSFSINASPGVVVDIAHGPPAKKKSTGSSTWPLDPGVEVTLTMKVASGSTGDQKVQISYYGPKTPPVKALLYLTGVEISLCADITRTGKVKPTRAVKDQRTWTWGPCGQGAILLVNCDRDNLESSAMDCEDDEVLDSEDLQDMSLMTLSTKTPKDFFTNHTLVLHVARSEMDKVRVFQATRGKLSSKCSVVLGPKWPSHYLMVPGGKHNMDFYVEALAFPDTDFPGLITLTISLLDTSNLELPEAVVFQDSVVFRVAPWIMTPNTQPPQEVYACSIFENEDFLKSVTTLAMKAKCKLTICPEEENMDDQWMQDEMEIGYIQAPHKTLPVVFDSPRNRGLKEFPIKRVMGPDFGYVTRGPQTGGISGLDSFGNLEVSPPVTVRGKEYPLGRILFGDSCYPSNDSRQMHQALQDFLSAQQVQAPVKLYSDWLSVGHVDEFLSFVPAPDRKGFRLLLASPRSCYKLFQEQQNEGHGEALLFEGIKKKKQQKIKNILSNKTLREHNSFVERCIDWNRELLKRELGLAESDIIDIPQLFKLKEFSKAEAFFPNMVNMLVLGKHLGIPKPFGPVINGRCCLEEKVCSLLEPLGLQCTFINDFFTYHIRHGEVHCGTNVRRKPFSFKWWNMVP

Turning to `COc1cc2c(OC)cccc2cc1C(=O)N[C@@H](CCCNC(=N)CF)C(=O)NCc1ccccc1` [EX-1, (S)-N-(1-(benzylamino)-5-(2-fluoroacetimidamido)-1-oxopentan-2-yl)-3,5-dimethoxy-2-naphthamide], the IC50 was less than 500 nM.

As for `COc1cc2ccccc2cc1C(=O)N[C@@H](CCCNC(=N)CF)C(=O)NCc1ccccc1` [EX-2, (S)-N-(1-(Benzylamino)-5-(2-fluoroacetimidamido)-1-oxopentan-2-yl)-3-methoxy-2-naphthamide], the IC50 is less than 500 nM.

The compound `COc1cccc(OC)c1C(=O)N[C@@H](CCCNC(=N)CF)C(=O)NCc1ccc(Cl)cc1` [EX-3, (S)-N-(1-((4-Chlorobenzyl)amino)-5-(2-fluoroacetimidamido)-1-oxopentan-2-yl)-2,6-dimethoxybenzamide] gave an IC50 of less than 500 nM.

`COc1cccc(Cl)c1C(=O)N[C@@H](CCCNC(=N)CF)C(=O)NCc1ccc(Cl)cc1` [EX-4, (S)-2-Chloro-N-(1-((4-chlorobenzyl)amino)-5-(2-fluoroacetimidamido)-1-oxopentan-2-yl)-6-methoxybenzamide] had an IC50 of 500 to 10000 nM.

For the compound `COc1ccccc1C(=O)N[C@@H](CCCNC(=N)CF)C(=O)NCc1ccc(Cl)cc1` [EX-5, (S)-N-(1-((4-Chlorobenzyl)amino)-5-(2-fluoroacetimidamido)-1-oxopentan-2-yl)-2-methoxybenzamide], the IC50 is 500 to 10000 nM.

With `COc1ccc(Cl)cc1C(=O)N[C@@H](CCCNC(=N)CF)C(=O)NCc1ccc(Cl)cc1` [EX-6, (S)-5-Chloro-N-(1-((4-chlorobenzyl)amino)-5-(2-fluoroacetimidamido)-1-oxopentan-2-yl)-2-methoxybenzamide], the IC50 is less than 500 nM.

`COc1ccc(-c2ccccc2)cc1C(=O)N[C@@H](CCCNC(=N)CF)C(=O)NCc1ccccc1` [EX-7, (S)-N-(1-(Benzylamino)-5-(2-fluoroacetimidamido)-1-oxopentan-2-yl)-4-methoxy-[1,1′-biphenyl]-3-carboxamide]: the IC50 is less than 500 nM.

Turning to `COc1ccc(-c2ccccc2)cc1C(=O)N[C@@H](CCCNC(=N)CF)C(=O)NCc1cccc(C)c1` [EX-8, (S)-N-(5-(2-Fluoroacetimidamido)-1-((3-methylbenzyl)amino)-1-oxopentan-2-yl)-4-methoxy-[1,1′-biphenyl]-3-carboxamide], the IC50 was 500 to 10000 nM.

The compound `COc1ccc(-c2ccccc2)cc1C(=O)N[C@@H](CCCNC(=N)CF)C(=O)NCc1cccc(Cl)c1` [EX-9, (S)-N-(1-((3-Chlorobenzyl)amino)-5-(2-fluoroacetimidamido)-1-oxopentan-2-yl)-4-methoxy-[1,1′-biphenyl]-3-carboxamide] registered an IC50 of 500 to 10000 nM.

Consider `COc1ccc(-c2ccccc2)cc1C(=O)N[C@@H](CCCNC(=N)CF)C(=O)NCc1ccccn1` [EX-10, (S)-N-(5-(2-Fluoroacetimidamido)-1-oxo-1-((pyridin-2-ylmethyl)amino)pentan-2-yl)-4-methoxy-[1,1′-biphenyl]-3-carboxamide], for which the IC50 was less than 500 nM.

As to `COc1ccc(-c2cccc(Cl)c2)cc1C(=O)N[C@@H](CCCNC(=N)CF)C(=O)NCc1ccccc1` [EX-11, (S)-N-(1-(Benzylamino)-5-(2-fluoroacetimidamido)-1-oxopentan-2-yl)-3′-chloro-4-methoxy-[1,1′-biphenyl]-3-carboxamide], the IC50 was 500 to 10000 nM.

For the compound `COc1ccc(-c2cccc(C)c2)cc1C(=O)N[C@@H](CCCNC(=N)CF)C(=O)NCc1ccccc1` [EX-12, (S)-N-(1-(Benzylamino)-5-(2-fluoroacetimidamido)-1-oxopentan-2-yl)-4-methoxy-3′-methyl-[1,1′-biphenyl]-3-carboxamide], the IC50 was less than 500 nM.

Take `COc1ccccc1CNC(=O)[C@H](CCCNC(=N)CF)NC(=O)c1cc(-c2ccccc2)ccc1OC` [EX-13, (S)-N-(5-(2-Fluoroacetimidamido)-1-((2-methoxybenzyl)amino)-1-oxopentan-2-yl)-4-methoxy-[1,1′-biphenyl]-3-carboxamide]: the half-inhibitory concentration (IC50) is less than 500 nM.

Compound `COc1ccc(Cl)cc1C(=O)N[C@@H](CCCNC(=N)CF)C(=O)NCc1cccc(Cl)c1` [EX-14, (S)-5-Chloro-N-(1-((3-chlorobenzyl)amino)-5-(2-fluoroacetimidamido)-1-oxopentan-2-yl)-2-methoxybenzamide] showed an IC50 of less than 500 nM.

Turning to `COc1ccc(Cl)cc1C(=O)N[C@@H](CCCNC(=N)CF)C(=O)NCc1ccccc1Cl` [EX-15, (S)-5-Chloro-N-(1-((2-chlorobenzyl)amino)-5-(2-fluoroacetimidamido)-1-oxopentan-2-yl)-2-methoxybenzamide], the IC50 was less than 500 nM.

With `COc1ccc(Cl)cc1C(=O)N[C@@H](CCCNC(=N)CF)C(=O)NCc1ccc(C)cc1` [EX-16, (S)-5-Chloro-N-(5-(2-fluoroacetimidamido)-1-((4-methylbenzyl)amino)-1-oxopentan-2-yl)-2-methoxybenzamide], the IC50 is less than 500 nM.

Turning to `COc1ccc(CNC(=O)[C@H](CCCNC(=N)CF)NC(=O)c2cc(Cl)ccc2OC)cc1` [EX-17, (S)-5-Chloro-N-(5-(2-fluoroacetimidamido)-1-((4-methoxybenzyl)amino)-1-oxopentan-2-yl)-2-methoxybenzamide], the IC50 is less than 500 nM.

For `COc1ccc(Cl)cc1C(=O)N[C@@H](CCCNC(=N)CF)C(=O)NCc1ccccn1` [EX-18, (S)-5-Chloro-N-(5-(2-fluoroacetimidamido)-1-oxo-1-((pyridin-2-ylmethyl)amino)pentan-2-yl)-2-methoxybenzamide], the IC50 is less than 500 nM.

Compound `COc1cc2c(OC)cccc2cc1C(=O)N[C@@H](CCCNC(=N)CF)C(=O)NCc1ccc(Cl)cc1` [EX-19, (S)-N-(1-((4-Chlorobenzyl)amino)-5-(2-fluoroacetimidamido)-1-oxopentan-2-yl)-3,5-dimethoxy-2-naphthamide] came in with an IC50 of less than 500 nM.

The compound `COc1cc2c(OC)cccc2cc1C(=O)N[C@@H](CCCNC(=N)CF)C(=O)NCc1cccc(Cl)c1` [EX-20, (S)-N-(1-((3-Chlorobenzyl)amino)-5-(2-fluoroacetimidamido)-1-oxopentan-2-yl)-3,5-dimethoxy-2-naphthamide] returned an IC50 of less than 500 nM.

Regarding `COc1cc2c(OC)cccc2cc1C(=O)N[C@@H](CCCNC(=N)CF)C(=O)NCc1cccc(F)c1` [EX-21, (S)-N-(5-(2-Fluoroacetimidamido)-1-((3-fluorobenzyl)amino)-1-oxopentan-2-yl)-3,5-dimethoxy-2-naphthamide], the IC50 is less than 500 nM.

In turn, `COc1cc2c(OC)cccc2cc1C(=O)N[C@@H](CCCNC(=N)CF)C(=O)NCc1ccc(F)cc1` [EX-22, (S)-N-(5-(2-Fluoroacetimidamido)-1-((4-fluorobenzyl)amino)-1-oxopentan-2-yl)-3,5-dimethoxy-2-naphthamide] gave an IC50 of less than 500 nM.

`COc1c(C(=O)N[C@@H](CCCNC(=N)CF)C(=O)NCc2ccccc2)ccc2cc(N(C)C)ccc12` [EX-23, (S)-N-(1-(Benzylamino)-5-(2-fluoroacetimidamido)-1-oxopentan-2-yl)-6-(dimethylamino)-1-methoxy-2-naphthamide]: the IC50 was less than 500 nM.

Compound `COc1cc2c(OC)cccc2cc1C(=O)N[C@@H](CCCNC(=N)CF)C(=O)NCc1cccc(NC(=O)CCCNC(=O)CCCC[C@@H]2SC[C@@H]3NC(=O)N[C@@H]32)c1` [EX-24] returned an IC50 of less than 500 nM.

As a reminder, the IC50 is the concentration that inhibits the measured activity by half. A higher IC50 goes with a need for much substance.

(Values after patent US12606526B2, “Substituted salicylamide compounds and use thereof” (HELIOS HUAMING BIOPHARMA CO., LTD., priority 2021, dated 2026).)
